Test results reported in patent US7122360B1, “Polypeptides, polynucleotides and uses thereof” (University of Dundee, priority 1998, dated 2006).

Experiments:
MSK1 [1] = experiment: LPS-induced activation of MSK1 in RAW 264 macrophages; format: cell-based, mouse; conditions: for LPS-stimulated phosphorylation of MSK1: 50 μM PD 98059 or 10 (M SB203580), FIG. 15; for LPS-induced activation of MSK1: LPS 100 ng/ml 1 h, 10 μM UO 126, 10 μM SB 203580, 5 TM Ro 318220
Procedure: FIG. 15. […] After cell lysis aliquots were assayed for either MSK1 (A), MAPKAP-K1 (B), MAPKAP-K2 (C) after their immunoprecipitation from the lysates or immunoblotted for phosphorylation of CREB and ATF1 (D).
FIG. 18. Effect of inhibitors on the LPS-induced activation of protein kinases in RAW 264 macrophages. Macrophages were incubated for 1 h in the presence or absence 10 μM UO 126 (U) and/or 10 μM SB 203580 (SB), or 5 TM Ro 318220 (Ro), then stimulated for 1 h with or without 100 ng/ml LPS in the continued presence or absence of the inhibitors. MSK1(A), MSK2 (B), MAPKAP-KI (C) and MAPKAP-K2 (D) were then assayed after immunoprecipitation from the lysates.
(§1) Cell culture and stimulation. RAW 264 macrophages were maintained in a 95% air/5% CO2 atmosphere in Dulbecco's modified Eagle's medium (DMEM) plus 10% (v/v) heat-inactivated foetal calf serum, 100 U/ml penicillin, […] streptomycin. The day before stimulation, the macrophages were plated at a density of 2×10^6 cells per 6 cm plate and 2 h before stimulation, the medium removed and replaced with 2 ml of DMEM. Where indicated, […] (10 TM) and/or PD 98059 (50 Tm), or U0126 (10 TM) or Ro 318220 (5 TM), were added 1 h before stimulation.
Cell lysis. After stimulation, the medium was aspirated and the cells were solubilized in 0.2 ml of ice cold lysis buffer (50 mM Tris-acetate pH 7.0, 1 mM EDTA, 1 mM EGTA, 1% (w/v) Triton X-100, 1 mM sodium orthovanadate, 10 mM sodium glycerophosphate, 50 mM NaF, 5 mM sodium pyrophosphate, 0.27 M sucrose, 2 TM microcystin-LR, 1 mM benzamidine, 0.1% (v/v) 2-mercaptoethanol and “complete” proteinase inhibitor cocktail—one tablet per 50 ml). The samples were then snap frozen in liquid nitrogen and stored in aliquots at −80° C. until analysis. Protein concentrations were determined according to [7].

CREB = experiment: NGF-induced phosphorylation of CREB in PC12 cells; format: cell-based; conditions: 50 μM PD 98059, 10 μM SB 203580, 5 μM Ro 318220, NGF 30 ng/ml 15 min
Procedure: (§2) Immunoblotting for phosphorylated CREB and ATF1. Cell extracts were prepared and immunoblotting of these carried out as described (Tan et al., 1996) using a phosphospecific antibody recognizing CREB phosphorylated on Ser 133 and ATF1 phosphorylated on Ser63 purchased from UBI (Lake Placid, USA). Detection of phosphorylated CREB and ATF1 proteins was performed using the enhanced chemiluminescence reagent (Amersham).

MSK1 [2] = experiment: Arsenite and FGF-induced activation of MSK1 in SK-N-MC cells; format: cell-based; conditions: for FGF-induced activation of MSK1: 50 μM PD 98059, 10 μM SB 203580, FGF 50 ng/ml 15 min
Procedure: FIG. 14. […] After cell lysis aliquots were assayed for either MSK1 (A), MAPKAP-K1 (B), MAPKAP-K2 (C) after their immunoprecipitation from the lysates or immunoblotted for phosphorylation of CREB and ATF1 (D).
Cell Culture, stimulation and cell lysis.

CREB and ATF1 [3] = experiment: TNF induced CREB and ATF1 phosphorylation in HeLa cells; format: cell-based; conditions: for TNF-induced phosphorylation of CREB after 15 min / TNF-induced phosphorylation of CREB and ATF1 after 5 min: 50 μM PD 98059, 10 μM SB 203580
Procedure: FIG. 12. […] The position of CREB and ATF1 on the blots is indicated. The time of exposure (exp) of the blots before development is indicated.
as §2

COX-2 mRNA = experiment: COX-2 gene transcription in RAW 264 macrophages, RT-PCR; format: cell-based, mouse; conditions: LPS 3 h, PD 98059 (50 TM), SB 203580 (10 TM), Ro 318220 (5 TM)
Procedure: (§3) FIG. 21. Effect of PD 98059 and SB 203580 on gene transcription in RAW 264 macrophages. (A) Cells were stimulated for the times indicated with LPS (100 ng/ml). Total RNA was extracted at each time point and mRNA encoding IL-1, COX-2 and HRPT was determined using the reverse transcriptase polymerase chain reaction (Section 2.6). (B) As in A, except that the macrophages were incubated for 1 h in the presence or absence of PD 98059 (50 TM) and/or SB 203580 (10 TM), or Ro 318220 (5 TM), then stimulated for 3 h in the absence or presence of LPS, and in the continued presence or absence of the inhibitors. RTPCR was performed using oligonucleotides encoding fragments of IL-1, COX-2 and HPRT.
as §1
(§4) Reverse transcripts polymerase chain reactions. Total RNA was prepared from LPS-stimulated or control RAW 264 cells using the Rneasy Mini Kit according to the manufacturer's protocol. Total RNA was measured and 100 ng was reverse transcribed using Promega AMV reverse transcriptase (5 U/ml) with the oligonucleotides […] and […] TGA (coding for the IL-1 gene) and […] and […] (coding for the COX-2 gene). Conditions for PCR amplification of the resulting first-stand DNA template were 94° C. denaturing for 30 sec, 60° C. annealing for 1 min, 68° C. extension for 1 min, 30 cycles using thermostable Tf1 DNA polymerase (SU/ml), and 1 mM MgSO4.

IL-1 mRNA = experiment: IL-1 gene transcription in RAW 264 macrophages, RT-PCR; format: cell-based, mouse; conditions: LPS 3 h, PD 98059 (50 TM), SB 203580 (10 TM), Ro 318220 (5 TM)
Procedure: as §3, §1, §4

CREB and ATF1 [4] = experiment: Phosphorylation of CREB (Ser133) and ATF1 (Ser63) in 293 cells, immunoblot; format: cell-based, human; conditions: for EGF-induced CREB phosphorylation: 5 μM Ro 318220, 10 μM SB 203580, 50 μM PD 98059, EGF 100 ng/ml; for UV radiation-induced phosphorylation of CREB and ATF1: 5 μM Ro 318220, 10 μM SB 203580, 50 μM PD 98059
Procedure: FIG. 10. […] 293 cells were pre-treated either in the presence or absence of 5 μM Ro 318220 (Ro), 10 μM SB 203580 (SB), 50 μM PD 98059 (PD), and then exposed to either (A, D) UV radiation (200 J/m^2, 30 min and then 30 min at 37° C.) (B, E) EGF (100 ng/ml, 15 min), (C) forskolin (20 μM, 15 min). The cells were lysed and proteins were separated on 10% acrylamide gels and immunoblotted using a phosphospecific antibody that recognised both CREB and ATF1 when phosphorylated on Ser133 and Ser63 respectively. The position of CREB and ATF1 on the blots is indicated.
as §2

HPRT mRNA = experiment: HPRT housekeeping gene mRNA in RAW 264 macrophages, RT-PCR; format: cell-based, mouse; conditions: PD 98059 (50 TM), SB 203580 (10 TM), Ro 318220 (5 TM)
Procedure: as §3, §1, §4

Structure (SMILES)	LPS-stimulated phosphorylation of MSK1 (MSK1 [1])	NGF-induced phosphorylation of CREB (CREB)	FGF-induced activation of MSK1 (MSK1 [2])	TNF-induced phosphorylation of CREB after 15 min (CREB and ATF1 [3])	TNF-induced phosphorylation of CREB and ATF1 after 5 min (CREB and ATF1 [3])	LPS induction of COX-2 mRNA (COX-2 mRNA)	LPS induction of IL-1 mRNA (IL-1 mRNA)	EGF-induced CREB phosphorylation (CREB and ATF1 [4])	mRNA encoding the housekeeping gene HPRT (HPRT mRNA)	LPS-induced activation of MSK1 (MSK1 [1])	MSK1 activation in cells (MSK1 [2]; 5 μM Ro 318220, inhibitor removed on immunoprecipitation)	TNF-induced CREB phosphorylation (CREB and ATF1 [3]; 5 μM Ro 318220)	UV radiation-induced phosphorylation of CREB and ATF1 (CREB and ATF1 [4])	phosphorylation of CREB and ATF1 induced by forskolin (CREB and ATF1 [4]; 5 μM Ro 318220, forskolin 20 μM, 15 min)	sodium arsenite-induced activation of MSK1 (MSK1 [2]; 50 μM PD 98059, 10 μM SB 203580, arsenite 0.5 mM 15 min)
COc1cccc(-c2cc(=O)c3ccccc3o2)c1N [PD 98059]	appear to inhibit	not significantly affected	only partially suppressed	slightly suppressed	unaffected	partially suppressed	partially inhibited	prevented	unaffected						
Cn1cc(C2=C(c3cn(CCCSC(=N)N)c4ccccc34)C(=O)NC2=O)c2ccccc21 [Ro 318220]		suppressed				suppresses	suppresses	largely inhibited	unaffected	does not affect	does not affect MSK1 activation	completely blocked	largely inhibited	unaffected	
C[S+]([O-])c1ccc(-c2nc(-c3ccncc3)c(-c3ccc(F)cc3)[nH]2)cc1 (stereo not shown) [SB 203580]	appear to inhibit	not significantly affected	only partially suppressed	partially suppressed	prevented	partially suppressed	partially inhibited	not SB203580	unaffected	only inhibited partially			inhibited		prevented
